From patent US20150031760A1, “PHARMACEUTICAL COMPOSITION FOR PREVENTING OR TREATING NERVOUS SYSTEM DISORDERS COMPRISING SULFURETIN OR PHARMACEUTICALLY ACCEPTABLE SALT THEREOF” (Research and Business Foundation SUNGKYUNKWAN UNIVERSITY, priority 2010, published 2015)

Tests used:
Type in all cases: cell-based, human
SH-SY5Y cells [1] = test: LDH assay, amyloid beta25-35-induced cytotoxicity; settings: pretreatment with sulfuretin at 2.5, 5, 10 and 20 μM; 20 μM amyloid beta25-35 for 24 h (p<0.001)
BACE1 = test: Western blot, BACE1 level; settings: Swedish APP mutant SH-SY5Y cells; sulfuretin 2.5, 5, 10 and 20 μM for 24 h; dose-dependent (p<0.001)
Protocol: For the experiments shown in FIGS. 11 to 13, SH-SY5Y and stable swedish APP mutant SH-SY5Y cells were grown in DMEM supplemented with 10% heat-inactivated FBS and 0.1% penicillin/streptomycin at 37° C. in a humidified atmosphere of 5% CO2 and 95% air. Cells were fed every three days and sub-cultured once they reached 80-90% confluency in […] cell culture dishes. Amyloid beta25-35 was prepared as a 20 mM stock immediately before use and diluted in PBS to the indicated final concentration. Prior to use, amyloid beta25-35 was dissolved in sterilized distilled water and was aggregated at 37° C. for five days. The test compounds were dissolved in DMSO and the stock solutions were added directly to the culture media to a final concentration of 0.1% (v/v) DMSO.
SH-SY5Y and stable swedish APP mutant SH-SY5Y cells (1×10^6 cells/well in 6-well plates) were incubated at 37° C. with or without 20 μM amyloid beta 25-35 for 6 or 24 h, with or without sulfuretin pretreatment, and then washed and harvested with ice-cold PBS and centrifuged at 400×g for 3 minutes. […] The protein concentration was determined using a protein assay kit (Thermo Scientific). […] Protein bands were quantified by densitometric analysis using Image Gauge 4.0 software (Fujifilm, Stamford, Conn., USA). […]

phospho-JNK = test: Western blot, phospho-JNK expression; settings: SH-SY5Y cells
Protocol: (§1) The incubator was maintained at a temperature of 37° C., and a mixed gas of 95% air and 5% CO2 was continuously supplied thereto to provide suitable conditions for cell culture. The cells were cultured in a 6-well plate or a 96-well plate at each of densities of 1×10^6 and 2×10^4 cells/well 24 hours before the experiment. […] Sulfuretin was used in ethanol and used at a final concentration of 0.1% or less.
(§2) In order to identify the effect of sulfuretin on the expression of proteins related to dementia, Alzheimer's disease, Parkinson's disease and strokes, a Western blot test was carried out.
(§3) After 24 hours, the supernatant of each well was collected and centrifuged at 400 g for 3 minutes, and the cells were washed with cold PBS and lysed with 100 μl of T-PER lysis buffer (Thermo, USA) for 30 minutes. The lysates were centrifuged at 10000 g at 4° C. for 15 minutes, and the supernatants were stored at […] until use as test samples. Proteins were quantitatively analyzed using a BCA assay kit (Thermo, USA) and separated within 8.5-12% SDS gel and then transferred to PVDF membranes. To examine the expression of the proteins, the development of fluorescence was analyzed by enhanced chemiluminescence (ECL). Specifically, the membrane was blocked with 5% skimmed non-fat milk for 1 hour and labeled with the primary antibodies, PARP, caspase-3, phospho-p38, phospho-JNK and β-actin at 4° C. overnight. Then, the membrane was washed three times with Tris-tween buffered saline (TTBS), and then labeled with horseradish peroxidase (HRP)-conjugated anti-rabbit and anti-mouse secondary antibodies at room temperature for 1 hour. Then, the membrane was washed five times with TTBS for 10 minutes. The washed film was developed by ECL using x-ray films, and concentrations were quantitatively analyzed using quantitative analysis program (Fujifilm, Japan).

PARP = test: Western blot, PARP expression; settings: SH-SY5Y cells
Protocol: as §1, §2, §3

SH-SY5Y cells [2] = test: LDH secretion (cytotoxicity) test
Protocol: as §1
To measure LDH secretion (cytotoxicity), an LDH cytotoxicity assay kit was used. 50 μl of the medium was taken from each well of the 96-well plate (in which the cells have been cultured) and dispensed into each well of a fresh 96-well plate, and 50 μl of a reaction reagent was added to each well, after which the plate was shielded from light. The plate was incubated in an incubator for 30 minutes, and the UV absorbance at 490 nm was measured using a microplate reader (Molecular device, USA).
The measured absorbance was substituted into the following equation to calculate LDH secretion:
LDH secretion (%)=(LDH secretion O.D. in medium/total LDH secretion O.D.)×100

[3] = hydrogen peroxide + sulfuretin 0.1 μg/ml
[4] = hydrogen peroxide + sulfuretin 0.5 μg/ml
[5] = hydrogen peroxide + sulfuretin 1 μg/ml

SMILES: O=C1/C(=C/c2ccc(O)c(O)c2)Oc2cc(O)ccc21 [sulfuretin]
- LDH activity (LDH release) (SH-SY5Y cells [1]): significantly decreased
- BACE1 level (BACE1): significantly inhibited
- phospho-JNK expression (phospho-JNK; [3]): ≤ 261%
- phospho-JNK expression (phospho-JNK; [4]): ≤ 204%
- phospho-JNK expression (phospho-JNK; [5]): ≤ 120%
- PARP expression (PARP; [3]): ≥ 70%
- PARP expression (PARP; [4]): ≥ 92%
- PARP expression (PARP; [5]): ≥ 99%
- LDH secretion (SH-SY5Y cells [2]; beta-amyloid-induced, sulfuretin 0.1 μg/ml): ≤ 12%
- LDH secretion (SH-SY5Y cells [2]; beta-amyloid-induced, sulfuretin 0.5 μg/ml): ≤ 11%
- LDH secretion (SH-SY5Y cells [2]; beta-amyloid-induced, sulfuretin 1 μg/ml): ≤ 11%
- LDH secretion (SH-SY5Y cells [2]; beta-amyloid-induced, sulfuretin 5 μg/ml): ≤ 9%
- LDH secretion (SH-SY5Y cells [2]; hydrogen peroxide-induced, sulfuretin 0.1 μg/ml): ≤ 77%
- LDH secretion (SH-SY5Y cells [2]; hydrogen peroxide-induced, sulfuretin 0.5 μg/ml): ≤ 56%
- LDH secretion (SH-SY5Y cells [2]; hydrogen peroxide-induced, sulfuretin 1 μg/ml): ≤ 33%
- LDH secretion (SH-SY5Y cells [2]; hydrogen peroxide-induced, sulfuretin 5 μg/ml): ≤ 39%
